Laboratory results: US20080268072A1, “Method of Improving Anticancer Effect of Pulsatillae Radix and a Composition Prepared by the Method” (Song-Bae Kim, priority 2004, published 2008)

Assays:
LL/2 cancer = conditions: BDF1 mouse; cited from earlier work
NCI-H23 cell line = conditions: comparison with adriamicine; cited from earlier work
tumor = experiment: Antitumor activity (test not specified)

| Compound | inhibition effect against LL/2 cancer (LL/2 cancer) [%] | activity against NCI-H23 cell line compared with adriamicine (NCI-H23 cell line) | antitumor activity (tumor) |
| --- | --- | --- | --- |
| CC1OC(OC2C(O[C@H]3CC[C@@]4(C)C(CC[C@]5(C)C4CC=C4C6CC(C)(C)CC[C@]6(C(=O)O)CC[C@]45C)[C@]3(C)CO)OCC(OC3OC(CO)C(O)C(O)C3O)C2O)C(O)C(O)C1O (stereo partly drawn) [SB365, 3-0-[0-α-L-rhamnopyranosyl-(1→2)-[0-β-D-glucopyranosyl-(1→4)]-α-L-arabinopyranosyl]hederagenin] | 80 | more strong activity | – |
| 3-0-[0-α-L-rhamnopyranosyl-(1→2)-[0-β-D-glucopyranosyl-(1→4)]-α-L-arabinopyranosyl]hederagenin 28-0-α-L-rhamnopyranosyl-(1→4-[0-β-D-glucopyranosyl-(1→6]-β-D-glucopyranosyl ester [SB 365-0] | – | – | no antitumor activity |
